# Experimental data reported in US8247211B2, “Glycopeptide antibiotics” (American Cyanamid Company, priority 2001, dated 2012).
# Key:
# [1] = test system: Staphylococcus aureus-SMITH (GC 4543); assay: Acute lethal infection in mice (ED50); format: in vivo; conditions: female CD-1 mice, intraperitoneal challenge, intravenous dose 30 min. after infection, 7 day survival ratios
# Method in brief: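 ED50 derived from pooled 7-day survival in three separate experiments, five mice per dose level. Single intravenous dose 30 min after intraperitoneal infection of female CD-1 mice with enough bacteria to kill untreated animals in 24-48 h.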
# Staphylococcus sp. = assay: In vitro antibacterial evaluation: minimum inhibitory concentration (MIC), broth dilution method; format: cell-based; conditions: 18 hours at 35° C.
# Method in brief: (§1)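 Susceptibility determined by NCCLS-recommended broth dilution (M7-A2), Muller-Hinton II […]. Concentration span 64-0.06 μg/mL, inoculum 5×10^5 CFU/mL. Isolates include strains resistant to methicillin, penicillin and/or vancomycin.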
# Escherichia coli = assay: as above; format: cell-based; conditions: 18 hours at 35° C.
# Method in brief: as §1
# Enterococcus sp. = assay: as above; format: cell-based; conditions: 18 hours at 35° C.
# Method in brief: as §1
# Streptococcus sp. = assay: as above; format: cell-based; conditions: 18 hours at 35° C.
# Method in brief: as §1
# [2] = Enterococcus faecalis (ATCC 29212)
# [3] = Enterococcus faecalis (GC 2242)
# [4] = Enterococcus faecalis (GC 2691)
# [5] = Enterococcus faecalis (GC 3059)
# [6] = Enterococcus faecalis (GC 4552)
# [7] = Enterococcus faecalis (GC 4553)
# [8] = Enterococcus faecalis (GC 4554)
# [9] = Enterococcus faecalis (GC 6189)
# [10] = broth dilution, inoculum 5×10^5 CFU/mL
# [11] = Streptococcus agalactiae (GC 4564)
# [12] = Streptococcus pneumoniae (ATCC 6301)
# [13] = Streptococcus pneumoniae (GC 1894)
# [14] = Streptococcus pneumoniae (GC 4565)
# [15] = Streptococcus pyogenes (GC 4563)
structure (smiles),measurement,setting,value
"CC(c1ccccc1)C1NC(=O)CNC(=O)C(CO)NC(=O)C(C(O)C2CNC(=N)N2C2OC(CO)C(O)C(O)C2O)NC(=O)C(C(O)C2CNC(=N)N2)NC(=O)C(Cc2ccc(OC3OC(CO)C(OC4OC(COCc5ccc(OCc6ccccc6)cc5)C(O)C(O)C4O)C(O)C3O)cc2)NC1=O (stereo not drawn) [Example 231, Cyclo[glycyl-β-methylphenylalanyl-O-[4-O-[6-O-[4-(phenylmethoxy)benzyl]hexopyranosyl]-hexopyranosyl)tyrosyl-3-(2-iminoimidazolidin-4-yl)seryl-3-(3-hexopyranosyl-2-iminoimidazolidin-4-yl)serylseryl]]","median effective dose (ED50), Staphylococcus aureus-SMITH (GC 4543)",[1],0.25 mg/kg
same,MIC Coagulase Negative Staphylococcus (GC 4547),Staphylococcus sp.,1 to 2 µg/mL
same,MIC Coagulase Negative Staphylococcus (GC 4548),Staphylococcus sp.; Coagulase Negative Staphylococcus (GC 4548),0.5 to 1 µg/mL
same,MIC Coagulase Negative Staphylococcus (GC 4551),Staphylococcus sp.,1 µg/mL
same,MIC Coagulase Negative Staphylococcus (GC 6257),Staphylococcus sp.,0.5 to 1 µg/mL
same,MIC Staphylococcus aureus (ATCC 29213),Staphylococcus sp.,1 to 4 µg/mL
same,MIC Staphylococcus aureus (GC 1131),Staphylococcus sp.,2 to 4 µg/mL
same,MIC Staphylococcus aureus (GC 3051),Staphylococcus sp.,1 to 2 µg/mL
same,MIC Staphylococcus aureus (GC 3053),Staphylococcus sp.,1 to 2 µg/mL
same,MIC Staphylococcus aureus (GC 4541),Staphylococcus sp.,1 to 4 µg/mL
same,MIC Staphylococcus aureus (GC 4542),Staphylococcus sp.,2 to 4 µg/mL
same,MIC Staphylococcus aureus (GC 4544),Staphylococcus sp.,2 to 4 µg/mL
same,MIC Staphylococcus aureus (GC 4545),Staphylococcus sp.,1 to 4 µg/mL
same,MIC Staphylococcus aureus-SMITH (GC 4543),Staphylococcus sp.,2 µg/mL
same,MIC Staphylococcus haemolyticus (GC 4546),Staphylococcus sp.,1 to 4 µg/mL
same,MIC Escherichia coli (GC 4560),Escherichia coli,0.5 to 2 µg/mL
same,MIC Enterococcus avium (GC 4558),Enterococcus sp.; Enterococcus avium (GC 4558),2 to 4 µg/mL
same,MIC Enterococcus faecalis (ATCC 29212),Enterococcus sp.; [2],4 µg/mL
same,MIC Enterococcus faecalis (GC 2242),Enterococcus sp.; [3],4 µg/mL
same,MIC Enterococcus faecalis (GC 2691),Enterococcus sp.; [4],2 to 4 µg/mL
same,MIC Enterococcus faecalis (GC 3059),Enterococcus sp.; [5],2 to 4 µg/mL
same,MIC Enterococcus faecalis (GC 4552),Enterococcus sp.; [6],4 µg/mL
same,MIC Enterococcus faecalis (GC 4553),Enterococcus sp.; [7],4 µg/mL
same,MIC Enterococcus faecalis (GC 4554),Enterococcus sp.; [8],4 µg/mL
same,MIC Enterococcus faecalis (GC 6189),Enterococcus sp.; [9],2 to 4 µg/mL
same,MIC Enterococcus faecium (GC 2243),Enterococcus sp.; Enterococcus faecium (GC 2243),4 µg/mL
same,MIC Enterococcus faecium (GC 4556),Enterococcus sp.; Enterococcus faecium (GC 4556),4 µg/mL
same,MIC Enterococcus faecium (GC 4557),Enterococcus sp.; Enterococcus faecium (GC 4557),1 to 2 µg/mL
same,MIC Enterococcus avium (GC 4558),Enterococcus sp.; [10],2 to 4 µg/mL
same,MIC Enterococcus faecalis (ATCC 29212),Enterococcus sp.; [10],4 µg/mL
same,MIC Enterococcus faecalis (GC 2242),Enterococcus sp.; [10],4 µg/mL
same,MIC Enterococcus faecalis (GC 2691),Enterococcus sp.; [10],2 to 4 µg/mL
same,MIC Enterococcus faecalis (GC 3059),Enterococcus sp.; [10],2 to 4 µg/mL
same,MIC Enterococcus faecalis (GC 4552),Enterococcus sp.; [10],4 µg/mL
same,MIC Enterococcus faecalis (GC 4553),Enterococcus sp.; [10],4 µg/mL
same,MIC Enterococcus faecalis (GC 4554),Enterococcus sp.; [10],4 µg/mL
same,MIC Enterococcus faecalis (GC 6189),Enterococcus sp.; [10],2 to 4 µg/mL
same,MIC Enterococcus faecium (GC 2243),Enterococcus sp.; [10],4 µg/mL
same,MIC Enterococcus faecium (GC 4556),Enterococcus sp.; [10],4 µg/mL
same,MIC Enterococcus faecium (GC 4557),Enterococcus sp.; [10],1 to 2 µg/mL
same,MIC Streptococcus agalactiae (GC 4564),Streptococcus sp.; [11],<0.06 µg/mL
same,MIC Streptococcus pneumoniae (ATCC 6301),Streptococcus sp.; [12],<0.06 µg/mL
same,MIC Streptococcus pneumoniae (GC 1894),Streptococcus sp.; [13],<0.06 µg/mL
same,MIC Streptococcus pneumoniae (GC 4565),Streptococcus sp.; [14],<0.06 µg/mL
same,MIC Streptococcus pyogenes (GC 4563),Streptococcus sp.; [15],<0.06 µg/mL
same,MIC Streptococcus agalactiae (GC 4564),Streptococcus sp.; [10],<0.06 µg/mL
same,MIC Streptococcus pneumoniae (ATCC 6301),Streptococcus sp.; [10],<0.06 µg/mL
same,MIC Streptococcus pneumoniae (GC 1894),Streptococcus sp.; [10],<0.06 µg/mL
same,MIC Streptococcus pneumoniae (GC 4565),Streptococcus sp.; [10],<0.06 µg/mL
same,MIC Streptococcus pyogenes (GC 4563),Streptococcus sp.; [10],<0.06 µg/mL
"CC(c1ccccc1)C1NC(=O)CNC(=O)C(CO)NC(=O)C(C(O)C2CNC(=N)N2C2OC(CO)C(O)C(O)C2O)NC(=O)C(C(O)C2CNC(=N)N2)NC(=O)C(Cc2ccc(OC3OC(CO)C(OC4OC(CO)C(OCc5ccc(OCc6ccccc6)cc5)C(O)C4O)C(O)C3O)cc2)NC1=O (stereo not drawn) [Example 231a, Cyclo[glycyl-β-methylphenylalanyl-O-[4-O-[4-O-[4-(phenylmethoxy)benzyl]hexopyranosyl]-hexopyranosyl]tyrosyl-3-(2-iminoimidazolidin-4-yl)seryl-3-(3-hexopyranosyl-2-iminoimidazolidin-4-yl)serylseryl]]","median effective dose (ED50), Staphylococcus aureus-SMITH (GC 4543)",[1],0.06 mg/kg
same,MIC Coagulase Negative Staphylococcus (GC 4547),Staphylococcus sp.,1 µg/mL
same,MIC Coagulase Negative Staphylococcus (GC 4551),Staphylococcus sp.,0.5 µg/mL
same,MIC Coagulase Negative Staphylococcus (GC 6257),Staphylococcus sp.,0.5 µg/mL
same,MIC Staphylococcus aureus (ATCC 29213),Staphylococcus sp.,1 to 2 µg/mL
same,MIC Staphylococcus aureus (GC 1131),Staphylococcus sp.,1 to 2 µg/mL
same,MIC Staphylococcus aureus (GC 3051),Staphylococcus sp.,1 µg/mL
same,MIC Staphylococcus aureus (GC 3053),Staphylococcus sp.,1 to 2 µg/mL
same,MIC Staphylococcus aureus (GC 4541),Staphylococcus sp.,1 to 2 µg/mL
same,MIC Staphylococcus aureus (GC 4542),Staphylococcus sp.,0.5 to 1 µg/mL
same,MIC Staphylococcus aureus (GC 4544),Staphylococcus sp.,2 to 4 µg/mL
same,MIC Staphylococcus aureus (GC 4545),Staphylococcus sp.,1 to 2 µg/mL
same,MIC Staphylococcus aureus-SMITH (GC 4543),Staphylococcus sp.,1 µg/mL
same,MIC Staphylococcus haemolyticus (GC 4546),Staphylococcus sp.,1 µg/mL
same,MIC Escherichia coli (GC 4559),Escherichia coli; Escherichia coli (GC 4559),32 µg/mL
same,MIC Escherichia coli (GC 4560),Escherichia coli,0.5 to 2 µg/mL
same,MIC Enterococcus avium (GC 4558),Enterococcus sp.; Enterococcus avium (GC 4558),2 µg/mL
same,MIC Enterococcus faecalis (ATCC 29212),Enterococcus sp.; [2],2 µg/mL
same,MIC Enterococcus faecalis (GC 2242),Enterococcus sp.; [3],2 to 4 µg/mL
same,MIC Enterococcus faecalis (GC 2691),Enterococcus sp.; [4],2 µg/mL
same,MIC Enterococcus faecalis (GC 3059),Enterococcus sp.; [5],1 to 2 µg/mL
same,MIC Enterococcus faecalis (GC 4552),Enterococcus sp.; [6],4 µg/mL
same,MIC Enterococcus faecalis (GC 4553),Enterococcus sp.; [7],4 µg/mL
same,MIC Enterococcus faecalis (GC 4554),Enterococcus sp.; [8],4 µg/mL
same,MIC Enterococcus faecalis (GC 6189),Enterococcus sp.; [9],1 to 2 µg/mL
same,MIC Enterococcus faecium (GC 2243),Enterococcus sp.; Enterococcus faecium (GC 2243),2 µg/mL
same,MIC Enterococcus faecium (GC 4556),Enterococcus sp.; Enterococcus faecium (GC 4556),2 to 4 µg/mL
same,MIC Enterococcus faecium (GC 4557),Enterococcus sp.; Enterococcus faecium (GC 4557),2 µg/mL
same,MIC Enterococcus avium (GC 4558),Enterococcus sp.; [10],2 µg/mL
same,MIC Enterococcus faecalis (ATCC 29212),Enterococcus sp.; [10],2 µg/mL
same,MIC Enterococcus faecalis (GC 2242),Enterococcus sp.; [10],2 to 4 µg/mL
same,MIC Enterococcus faecalis (GC 2691),Enterococcus sp.; [10],2 µg/mL
same,MIC Enterococcus faecalis (GC 3059),Enterococcus sp.; [10],1 to 2 µg/mL
same,MIC Enterococcus faecalis (GC 4552),Enterococcus sp.; [10],4 µg/mL
same,MIC Enterococcus faecalis (GC 4553),Enterococcus sp.; [10],4 µg/mL
same,MIC Enterococcus faecalis (GC 4554),Enterococcus sp.; [10],4 µg/mL
same,MIC Enterococcus faecalis (GC 6189),Enterococcus sp.; [10],1 to 2 µg/mL
same,MIC Enterococcus faecium (GC 2243),Enterococcus sp.; [10],2 µg/mL
same,MIC Enterococcus faecium (GC 4556),Enterococcus sp.; [10],2 to 4 µg/mL
same,MIC Enterococcus faecium (GC 4557),Enterococcus sp.; [10],2 µg/mL
same,MIC Streptococcus agalactiae (GC 4564),Streptococcus sp.; [11],<0.06 µg/mL
same,MIC Streptococcus pneumoniae (ATCC 6301),Streptococcus sp.; [12],<0.06 µg/mL
same,MIC Streptococcus pneumoniae (GC 1894),Streptococcus sp.; [13],<0.06 µg/mL
same,MIC Streptococcus pneumoniae (GC 4565),Streptococcus sp.; [14],<0.06 µg/mL
same,MIC Streptococcus pyogenes (GC 4563),Streptococcus sp.; [15],<0.06 µg/mL
same,MIC Streptococcus agalactiae (GC 4564),Streptococcus sp.; [10],<0.06 µg/mL
same,MIC Streptococcus pneumoniae (ATCC 6301),Streptococcus sp.; [10],<0.06 µg/mL
same,MIC Streptococcus pneumoniae (GC 1894),Streptococcus sp.; [10],<0.06 µg/mL
same,MIC Streptococcus pneumoniae (GC 4565),Streptococcus sp.; [10],<0.06 µg/mL
same,MIC Streptococcus pyogenes (GC 4563),Streptococcus sp.; [10],<0.06 µg/mL
